Reference: patent publication US4100152A, “Peptides” (Takeda Chemical Industries, Ltd., priority 1976, dated 1978)

What was measured:
Assay type in all cases: in vivo
[1] = system: mice (ICR/JCL, male, 4 weeks old); assay: Activity-increasing action (spontaneous activity in activity wheel); conditions: ratio of effect to that of the same dose of TRH (TRH = 1), cumulative wheel rotations during 3 hours after i.v. administration
Experimental: (3) Activity-increasing action
Using groups of 10 mice (ICR/JCL, male, 4 weeks old), each mouse was placed in an activity wheel and the activity-increasing action of the medication on the mouse was observed. The cumulative number of rotations caused by the spontaneous activity of the mice during a period of 3 hours following the intravenous administration of compound (I) was compared with the number of revolutions for the control group.
(§1) The relative effects of compound (I) by the above 4 procedures were expressed in terms of the ratios of effect of the same dose of compound (I) as that of TRH with the effects of TRH being taken as unity.

[2] = system: mice (ICR/JCL, male, 4 weeks old); assay: Anaesthesia antagonism (pentobarbital sodium, recovery of righting reflex); conditions: ratio of effect to that of the same dose of TRH (TRH = 1), 55 mg/kg pentobarbital sodium i.p., compound i.v. after 10 minutes
[3] = system: TSH (thyroid stimulating hormone) release; assay: TSH-releasing activity (method of Schally et al.); conditions: ratio of effect to that of the same dose of TRH (TRH = 1); rats
Experimental: (1) TSH-releasing activity
Using rats, a test was performed in accordance with the method of Schally et al. [J. Biol. Chem. 244, 4077, (1969)].
as §1

[4] = system: male mice (ICR/JCL) with one caudate nucleus destroyed; assay: Dopamine activity-potentiating effect (apomorphine-induced turning, caudate nucleus destroyed, reserpine premedication); conditions: ratio of effect to that of the same dose of TRH (TRH = 1), compound given 30 minutes before 0.25 mg/kg apomorphine i.p., reserpine 2 mg/kg i.p. premedication
Experimental: (4) Dopamine activity-potentiating effect
Using groups of 10 male mice (ICR/JCL) with one of its caudate nuclei destroyed by suction the effects of compound (I) upon the number of turns and the percent incidence of head turning as caused by 0.25 mg/kg of apomorphine (I.P.), i.e., a dopamine-receptor stimulant, under the influence of premedication (18-22 hours) with 2 mg/kg of reserpine (i.p.) were examined.
Thus, compound (I) was given 30 minutes before the administration of apomorphine and the result was compared with that for the untreated (control group). This test was performed to ascertain the potentiating effect of the compound upon the central nervous system action of dopamine, the principle of the test being the same as that of the experiment performed by Everett et al. [Fed. Proc. 23, 198, (1964)] for testing the DOPA synergistic effect which involved the administration of Dl-DOPA.
as §1

Row | Compound | Spontaneous activity-increasing effect [1] | Anaesthesia antagonism [2] | TSH-releasing effect [3] | Dopamine-potentiating effect [4]
1 | Oct.His.Pip.NH2 [Oct-His-Pip-NH2] | 5 | 1.57 | 0.5 | 4.00
2 | NC(=O)[C@@H]1CCCN1C(=O)[C@H](Cc1c[nH]cn1)NC(=O)[C@@H]1CCC(=O)N1 [TRH, L-pyroglutamyl-L-histidyl-L-prolinamide] | 1 | 1 | 1 | 1
